Measured values reported in PMC3482300 (Nature, 2012).

Assays:
[1] = system: NTS1; conditions: cited from earlier work
[2] = system: NTS1; conditions: cited from earlier work; remark: listed apart in the source
[3] = target: NTS1-GW5 (Rattus norvegicus, UniProt P20789, A86L/E166A/F358A/G215A/L310A/V360A); assay: Competition of [3H]NT binding by SR48692, NTS1-GW5
Sequence of NTS1-GW5 (P20789 43-396 A86L/E166A/G215A/L310A/F358A/V360A): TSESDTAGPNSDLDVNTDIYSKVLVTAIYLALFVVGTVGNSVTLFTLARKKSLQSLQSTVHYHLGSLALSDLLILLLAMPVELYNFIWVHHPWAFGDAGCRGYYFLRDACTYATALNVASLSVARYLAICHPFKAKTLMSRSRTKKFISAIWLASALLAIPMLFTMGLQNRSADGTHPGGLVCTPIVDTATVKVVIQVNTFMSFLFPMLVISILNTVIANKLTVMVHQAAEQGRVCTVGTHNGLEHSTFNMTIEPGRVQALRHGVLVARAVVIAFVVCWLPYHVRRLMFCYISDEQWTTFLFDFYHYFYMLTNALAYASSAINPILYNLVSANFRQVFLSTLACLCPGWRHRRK

**Q.** With KIPYIL [neuromedin N] as the compound, how does the “binding to NTS1” value [1] read?
**A.** binds

**Q.** Which “efficacy compared to full-length NT” value [2] does the source give for Arg-Arg-Pro-Tyr-Ile-Leu [NT8-13] here?
**A.** higher potency and efficacy

**Q.** What about the “potency compared to full-length NT” value [2] of the same compound?
**A.** higher potency

**Q.** Which “apparent affinity for SR48692 compared to wild-type” value [3] does the source give for `COc1cccc(OC)c1-c1cc(C(=O)NC2(C(=O)O)C3CC4CC(C3)CC2C4)nn1-c1ccnc2cc(Cl)ccc12` (stereo not shown) [SR48692] here?
**A.** lower
